Experimental data taken from patent US11083725B2 (priority 2014, dated 2021).

Tested on: NHBE cells
Experiment: Biolog metabolic array: substrate use by NHBE cells with or without CA09 infection
Type: cell-based, human
Conditions: for Substrate use, 590 nm absorbance normalized to zero hour, 1 hr: Biolog PMM2, 1 hr; for Substrate use, 590 nm absorbance normalized to zero hour, 5 hr: Biolog PMM2, 5 hr; for Substrate use, 590 nm absorbance normalized to zero hour, 7 hr: Biolog PMM2, 7 hr
[1] = Control (uninfected) NHBE cells
[2] = Virus (CA09-infected, MOI 1) NHBE cells
[3] = Virus: CA09-infected NHBE cells, MOI 1, Biolog PMM2

Row | SMILES | 590 nm absorbance normalized to zero hour (substrate use), 1 hr [1] | 590 nm absorbance normalized to zero hour (substrate use), 2 hr [1] | 590 nm absorbance normalized to zero hour (substrate use), 3 hr [1] | 590 nm absorbance normalized to zero hour (substrate use), 4 hr [1] | 590 nm absorbance normalized to zero hour (substrate use), 6 hr [1] | 590 nm absorbance normalized to zero hour (substrate use), 8 hr [1] | 590 nm absorbance normalized to zero hour (substrate use), 9 hr [1] | 590 nm absorbance normalized to zero hour (substrate use), 10 hr [1] | 590 nm absorbance normalized to zero hour (substrate use), 11 hr [1] | Substrate use, 590 nm absorbance normalized to zero hour, 1 hr [1] | Substrate use, 590 nm absorbance normalized to zero hour, 5 hr [1] | Substrate use, 590 nm absorbance normalized to zero hour, 7 hr [1] | 590 nm absorbance normalized to zero hour (substrate use), 1 hr [2] | 590 nm absorbance normalized to zero hour (substrate use), 2 hr [2] | 590 nm absorbance normalized to zero hour (substrate use), 3 hr [2] | 590 nm absorbance normalized to zero hour (substrate use), 4 hr [2] | 590 nm absorbance normalized to zero hour (substrate use), 5 hr [2] | 590 nm absorbance normalized to zero hour (substrate use), 6 hr [2] | 590 nm absorbance normalized to zero hour (substrate use), 7 hr [2] | 590 nm absorbance normalized to zero hour (substrate use), 8 hr [2] | also measured
1 | CO[C@@H]1OC[C@@H](O)[C@H](O)[C@H]1O [b-Methyl-D-Xyloside] | 1.53 | 6.40 | 1.59 | 1.73 | 1.14 | 4.02 | 2.33 | 2.61 | 3.03 | 1.53 | 2.08 | 4.46 | 1.92 | 2.38 | 2.79 | 2.82 | 3.12 | 3.28 | 3.39 | 3.52 | 590 nm absorbance normalized to zero hour (substrate use), 0 hr [1]: 1.00; Substrate use, 590 nm absorbance normalized to zero hour, 0 hr (Control (uninfected) NHBE cells, Biolog PMM2, 0 hr): 1.00; 590 nm absorbance normalized to zero hour (substrate use), 0 hr [2]: 1.00; 590 nm absorbance normalized to zero hour (substrate use), 9 hr [2]: 3.77; 590 nm absorbance normalized to zero hour (substrate use), 10 hr [2]: 3.87; 590 nm absorbance normalized to zero hour (substrate use), 11 hr [2]: 4.01; 590 nm absorbance normalized to zero hour (substrate use), 0 hr [3]: 1.00; 590 nm absorbance normalized to zero hour (substrate use), 1 hr [3]: 1.92; 590 nm absorbance normalized to zero hour (substrate use), 2 hr [3]: 2.38; 590 nm absorbance normalized to zero hour (substrate use), 3 hr [3]: 2.79; 590 nm absorbance normalized to zero hour (substrate use), 4 hr [3]: 2.82; 590 nm absorbance normalized to zero hour (substrate use), 5 hr [3]: 3.12; 590 nm absorbance normalized to zero hour (substrate use), 6 hr [3]: 3.28; 590 nm absorbance normalized to zero hour (substrate use), 7 hr [3]: 3.39; 590 nm absorbance normalized to zero hour (substrate use), 8 hr [3]: 3.52; 590 nm absorbance normalized to zero hour (substrate use), 9 hr [3]: 3.77; 590 nm absorbance normalized to zero hour (substrate use), 10 hr [3]: 3.87; 590 nm absorbance normalized to zero hour (substrate use), 11 hr [3]: 4.01
2 | OC[C@@H](O)[C@@H](O)[C@H](O)[C@H](O)CO [D-Mannitol] | 0.96 | 0.94 | 1.00 | 0.99 | 0.34 | 0.74 | 0.79 | 0.74 | 0.64 | 0.96 | 0.91 | 0.81 | 0.20 | 0.27 | 0.32 | 0.34 | 0.40 | 0.42 | 0.44 | 0.47 | 590 nm absorbance normalized to zero hour (substrate use), 9 hr [2]: 0.52; 590 nm absorbance normalized to zero hour (substrate use), 10 hr [2]: 0.53; 590 nm absorbance normalized to zero hour (substrate use), 11 hr [2]: 0.57; 590 nm absorbance normalized to zero hour (substrate use), 1 hr [3]: 0.20; 590 nm absorbance normalized to zero hour (substrate use), 2 hr [3]: 0.27; 590 nm absorbance normalized to zero hour (substrate use), 3 hr [3]: 0.32; 590 nm absorbance normalized to zero hour (substrate use), 4 hr [3]: 0.34; 590 nm absorbance normalized to zero hour (substrate use), 5 hr [3]: 0.40; 590 nm absorbance normalized to zero hour (substrate use), 6 hr [3]: 0.42; 590 nm absorbance normalized to zero hour (substrate use), 7 hr [3]: 0.44; 590 nm absorbance normalized to zero hour (substrate use), 8 hr [3]: 0.47; 590 nm absorbance normalized to zero hour (substrate use), 9 hr [3]: 0.52; 590 nm absorbance normalized to zero hour (substrate use), 10 hr [3]: 0.53; 590 nm absorbance normalized to zero hour (substrate use), 11 hr [3]: 0.57
3 | COC(=O)CCC(=O)O [Mono Methyl Succinate] | 1.07 | 1.14 | 1.10 | 1.10 | 0.53 | 1.09 | 1.11 | 1.11 | 1.11 | 1.07 | 1.13 | 1.07 | 1.44 | 1.71 | 1.97 | 2.04 | 2.16 | 2.33 | 2.40 | 2.45 | 590 nm absorbance normalized to zero hour (substrate use), 9 hr [2]: 2.58; 590 nm absorbance normalized to zero hour (substrate use), 10 hr [2]: 2.55; 590 nm absorbance normalized to zero hour (substrate use), 11 hr [2]: 2.67; 590 nm absorbance normalized to zero hour (substrate use), 1 hr [3]: 1.44; 590 nm absorbance normalized to zero hour (substrate use), 2 hr [3]: 1.71; 590 nm absorbance normalized to zero hour (substrate use), 3 hr [3]: 1.97; 590 nm absorbance normalized to zero hour (substrate use), 4 hr [3]: 2.04; 590 nm absorbance normalized to zero hour (substrate use), 5 hr [3]: 2.16; 590 nm absorbance normalized to zero hour (substrate use), 6 hr [3]: 2.33; 590 nm absorbance normalized to zero hour (substrate use), 7 hr [3]: 2.40; 590 nm absorbance normalized to zero hour (substrate use), 8 hr [3]: 2.45; 590 nm absorbance normalized to zero hour (substrate use), 9 hr [3]: 2.58; 590 nm absorbance normalized to zero hour (substrate use), 10 hr [3]: 2.55; 590 nm absorbance normalized to zero hour (substrate use), 11 hr [3]: 2.67
